Measurements taken from the NIST ThermoML archive (doi:10.1021/acs.jced.7b00344).

Assay: xn = mol fraction of the nth substance listed
Details: 101.3 kPa, Liquid; for viscosity: Capillary tube (Ostwald / Ubbelohde) method; for mass density: Pycnometric method

CC(=O)C1CCOC1=O (stereo not given) [2-acetylbutyrolactone] + CC(=O)C1CC1
Details | mass density, 303.15 K [kg/m3] | mass density, 313.15 K [kg/m3] | mass density, 323.15 K [kg/m3] | mass density, 333.15 K [kg/m3] | viscosity, 303.15 K [mPa·s] | viscosity, 313.15 K [mPa·s] | viscosity, 323.15 K [mPa·s] | viscosity, 333.15 K [mPa·s]
x2 = 0 | 1185.7 | 1178.3 | 1168.9 | 1159.4 | 3.794 | 3.424 | 3.067 | 2.719
x2 = 0.0998 | 1161.9 | 1154.3 | 1144.9 | 1135.6 | 3.195 | 2.889 | 2.609 | 2.33
x2 = 0.2009 | 1136.2 | 1128.5 | 1119.1 | 1109.7 | 2.633 | 2.369 | 2.118 | 1.892
x2 = 0.3004 | 1109.7 | 1101.8 | 1092.3 | 1082.9 | 2.164 | 1.945 | 1.748 | 1.571
x2 = 0.4002 | 1081.9 | 1073.7 | 1064.2 | 1054.8 | 1.786 | 1.599 | 1.415 | 1.278
x2 = 0.4999 | 1052.8 | 1044.3 | 1034.8 | 1025.4 | 1.452 | 1.306 | 1.154 | 1.025
x2 = 0.5999 | 1022.5 | 1013.8 | 1004.2 | 994.8 | 1.198 | 1.054 | 0.9344 | 0.8398
x2 = 0.6999 | 991.1 | 982.1 | 972.4 | 963.1 | 0.9813 | 0.8642 | 0.778 | 0.6958
x2 = 0.7999 | 958.3 | 949.2 | 939.6 | 930.2 | 0.783 | 0.6912 | 0.639 | 0.5704
x2 = 0.8999 | 924.5 | 915.5 | 905.9 | 896.5 | 0.6546 | 0.5854 | 0.5436 | 0.4933
